# From US20100204149A1, “USE OF OCTREOTIDE AS A THERAPEUTIC AGENT” (priority 2007, published 2010)
# What was measured:
# [1] = tested on: hepatitis B virus (HBV) ayw strain; assay: HBV replication assay, secreted HBV DNA by TaqMan PCR; type: cell-based; settings: HepG2-2.2.15; peptide 10 micrograms per ml; six days; HBV DNA in supernatant
# [2] = Cell viability (dye uptake) in HBV assay; type: cell-based; settings: human, HepG2-2.2.15, peptide 10 micrograms per ml
# HCMV strain AD169 = assay: HCMV plaque reduction assay in MRC-5 cells; type: cell-based; settings: peptide 10 micrograms per ml, 7-10 days
# Description: Ganciclovir was used as positive control.
# [3] = Cytotoxicity testing in MRC-5 cells (CellTiter 96); type: cell-based; settings: human, MRC-5 cells (embryonal lung fibroblasts); MRC-5 cells; 6 days incubation; read-out: % Cell viability
# Protocol: For cytotoxicity testing, MRC-5 cells were seeded at 2,500 cells/well in 96 well plates using growth medium. […] The following day, peptide was added and tested in duplicates. After a 6 days incubation period, cell viability was measured using CellTiter 96 Solution (Promega). Plates were incubated for additional 4 hours at 37° C.
# Pseudomonas aeruginosa = Pseudomonas aeruginosa assay; type: cell-based; settings: peptide 10 micrograms per ml, read visually
# Protocol: (§1) The antibacterial assay was conducted using clear, U-bottom 96-well microtiter plates. Cation-adjusted Mueller-Hinton Broth (MHB) was used for testing Pseudomonas aeruginosa. The peptide of the invention (0.1 ml of each—10 micrograms per ml—) was dispensed into wells in duplicate. Then the wells were inoculated with 5×10^5 CFU/mL Pseudomonas aeruginosa in 0.1 ml volume. For control purposes, each plate included 4 wells containing media without bacterial inoculum and 4 wells containing medium with inoculum but without peptide. The plates were incubated for 12 h at 37° C., and read visually 18-24 hours post-incubation. Growth control of Pseudomonas aeruginosa was examined first to determine adequacy of media preparations and growth conditions. Acceptable growth is defined as ≧2 mm wide button of cells at the bottom of each sample well, or obvious turbidity in the culture supernatant. Test wells were examined and scored as positive/negative for activity. A positive score for activity is based on complete inhibition of macroscopic growth of the test Pseudomonas aeruginosa.
# Streptococcus pneumoniae = Streptococcus pneumoniae assay; type: cell-based; settings: peptide 10 micrograms per ml, read visually
# Protocol: as §1, with “Streptococcus pneumoniae.” for “Pseudomonas aeruginosa.”, “Streptococcus pneumoniae” for “Pseudomonas aeruginosa”
# Human A549 cells [4] = assay: Apoptosis induction assay (Annexin-5); type: cell-based; settings: peptide 10 micrograms per ml, 24 hours
# Description: Human A549 cells (carcinomic human alveolar basal epithelial cells) were utilized in the experiments employing the Annexin-5 apoptosis assay. Annexin-5 is a member of a highly conserved protein family that binds acidic phospholipids in a calcium-dependent manner. […] Phosphatidylserine is translocated from the inner side of the plasma membrane to the outer layer when cells undergo death by apoptosis or cell necrosis and serves as a signal by which cell destined for death are recognized by phagocytes. Test peptide—10 micrograms per ml—were exposed for 24 hours to the A549 cells before they were analyzed for signs of apoptosis.
# Human A549 cells [5] = assay: Apoptosis prevention assay (C2 ceramide, Annexin-5); type: cell-based; settings: pretreated 30 min with peptide 10 micrograms per ml
# Description: Human A549 cells (carcinomic human alveolar basal epithelial cells) were utilized in the experiments employing the Annexin-5 apoptosis assay. Annexin-5 is a member of a highly conserved protein family that binds acidic phospholipids in a calcium-dependent manner. […] Phosphatidylserine is translocated from the inner side of the plasma membrane to the outer layer when cells undergo death by apoptosis or cell necrosis and serves as a signal by which cell destined for death are recognized by phagocytes. A549 cells were pretreated for 30 min with test peptide -10 micrograms per ml—followed by the exposure to C2 ceramide. Ceramide mediates cell apoptosis through the activation of the mitogen activating protein kinase (MAPK) and the stress activated kinase (JNK/SAPK). C2 ceramide is a synthetic, membrane soluble analog of ceramide.
# [6] = tested on: macrophages from human PBMC; assay: TNF alpha production assay in LPS-stimulated macrophages; type: cell-based; settings: TNF alpha ELISA; peptide 10 micrograms per ml; lipopolysaccharide 200 ng/ml; overnight
# Protocol: The macrophages were prepared by adherence of PBMC to the plastic wells of the plates. After 8 days in culture in the presence of recombinant human macrophage-colony stimulating factor at 2 ng/ml, differentiated macrophages were preincubated with test peptide—10 micrograms per ml—for 30 min, followed by in-well stimulation by the addition of lipopolysaccharide at a final concentration of 200 ng/ml. Not stimulated macrophages served as negative background control.
# After overnight incubation, supernatants from the control and LPS-stimulated cultures were harvested and assayed for TNF alpha production employing a TNF alpha specific ELISA.
# [7] = tested on: Primary Human endothelial cells (HUVEC); assay: Endothelial cell migration assay; type: cell-based; settings: peptide 10 micrograms per ml, 22 hours
# Protocol: Endothelial cell migration is a prerequisite for the process of neo-vascularization or angiogenesis which is crucial for on-site recruitment of blood vessel formation. Primary Human endothelial cells (HUVEC) were seeded in insert chambers with 3 micrometer pore size of multi-transwell plate for 6 hours at 37° C. in Endothelial Cell Basal Medium (EBM) supplemented with 0.1% bovine serum albumin. Thereafter, designated concentration of test peptide—10 micrograms per ml—was added in duplicate wells. The endothelia were allowed to migrate for 22 hours at 37° C., then, migrated cells were fixed and stained with Hoechst 33342 dye. Images of 3 fields per insert were taken and the number of migrated cells per field were quantified using the ImageProPlus software. Data were analyzed for the average number of the migrated cells and standard deviation of six data points for each treatment condition. Active test peptide against HUVEC migration was determined based on 50% inhibition of migrated cells as compared with the control. Statistic p values were computed using the Student's t-test.
# [8] = tested on: Human Peripheral Blood Mononuclear Cells (PBMC); settings: T cell proliferation; peptide 10 micrograms per ml; 3 days
# Protocol: Human Peripheral Blood Mononuclear Cells (PBMC) were obtained from normal human donors. The T cell proliferation was induced by stimulation of the cells with the T cell mitogen phytohemagglutinin (PHA), either in the absence (positive proliferation control), or in the presence of test peptide—10 micrograms per ml—to examine their effects on the T cell proliferating response. 10^5/well PBMC were plated in 96-well microtiter plates and assayed in duplicate with the peptide. Cell cultures were incubated at 37° C. for 3 days in a 5% CO2 incubator and were thereafter pulsed with 1 microCi/well ^3H-thymidine for additional 12 hours of culture. At the end of incubation time, the plates were harvested and the cells counted by liquid scintillation for the incorporation of ^3H-thymidine as a measure of T cell proliferation.
# [9] = Cytotoxicity (MTS cell viability) in HIV-1 assay; settings: human, CEM-SS cells
# HIV-1IIIB = assay: HIV-1 antiviral assay (CPE reduction) in CEM-SS cells; settings: peptide 10 micrograms per ml; 6 days post-infection; MTS
smiles,measurement,setting,value
"C[C@@H](O)[C@@H]1NC(=O)[C@H](CCCCN)NC(=O)[C@@H](Cc2c[nH]c3ccccc23)NC(=O)[C@H](Cc2ccccc2)NC(=O)[C@@H](NC(=O)[C@H](N)Cc2ccccc2)CSSC[C@@H](C(=O)N[C@H](CO)[C@@H](C)O)NC1=O [Octreotide, H-D-Phe-Cys-Phe-D-Trp-Lys-Thr-Cys-L-threoninol]",% inhibition of HBV replication in HEP G2 cells,[1],13.4%
same,"viability at 144 h, 10 micrograms per ml",[2],97.8%
same,% plaque reduction,HCMV strain AD169,0.0%
same,viability at 144 h,[3],100%
same,% inhibition,Pseudomonas aeruginosa,0.0%
same,% inhibition,Streptococcus pneumoniae,100.0%
same,% of induction,Human A549 cells [4],2.6%
same,% prevention of ceramide induced apoptosis,Human A549 cells [5],0.0%
same,% of LPS induction,[6],105.8%
same,% inhibition of migration,[7],−24%
same,% of PHA induced control,[8],100.0%
same,viability at 10 micrograms per ml,[9],100%
same,% CPE reduction in HIV-1 infected CEM-SS cells,HIV-1IIIB,0.0%
